Reference: patent publication US10337049B2, “Universal methylation profiling methods” (THE TRUSTEES OF COLUMBIA UNIVERSITY IN THE CITY OF NEW YORK, priority 2013, dated 2019)

What was measured:
[1] = Photo-irradiation of 16mer oligonucleotide, single base extension-MS analysis; type: physicochemical; settings: primer 5′-TGCCGCACTC-3′, MS of elongated primer
Description: After HPLC purification, the modified 16mer was characterized by MALDI-TOF MS yielding a peak with MW of 5001, equal to the calculated mass. Then photo-irradiation of oligo [NT] ID NO: 1) was conducted to convert C* to a U analog. The outcome for conversion of C* in DNA was detected by using single base extension-MS analysis (FIG. 7). In this analysis, the photo-irradiated oligonucleotide was annealed with a primer […] 2964) (SEQ ID NO: 2), then incubated with ddNTPs and DNA polymerase. With the aid of DNA polymerase, one of the 4 ddNTPs can be selectively incorporated onto the 3' end of the primer. Photo-chemistry induced conversion of C to U should be able to direct the incorporation of ddA, resulting in an elongated primer with a MW of 3261, otherwise ddG should be incorporated giving an elongated primer of MW 3277. […] In the control experiment, photo-irradiation of the unmodified counterpart [NT] ID NO: 3) was conducted under the same conditions. […] We also measured possible photoirradiation-induced DNA damage. Under the conditions we used (300 nm, over 10 h) no DNA damage was observed.

[2] = Photo-irradiation of 5 position-modified deoxycytidine at about 300 nm, HPLC/UV/MS monitoring; type: physicochemical; settings: for photochemical conversion to U analog on photo-irradiation: about 300 nm, aqueous solution, up to 12 h
Description: Photo-irradiation of 5-All-OMC at about 300 nm was then conducted in aqueous solution for up to 12 h, and the reaction products separated and monitored by HPLC and UV absorption.
Both C and 5-methyl-C remain intact after photo-irradiation under the same conditions. […] To further verify this conversion, 5-All-OMU was synthesized and characterized. […] The photochemically generated 5-All-OMU was also characterized by ^1HNMR.

[3] = Photoirradiation of 5-PhAll-OMC with 350 nm light in the presence of triplet sensitizer thioxanthone, HPLC analysis; type: physicochemical; settings: 20 min
From the text: 5-PhAll-OMC was irradiated with 350 nm light in the presence of the triplet photosensitizer thioxanthone (TX).
The new product was found 1 mass unit higher than the starting material 5-PhAll-OMC, indicating possible U analog was generated from 5-PhAll-OMC. […] The ^13C NMR spectra, shown in FIG. 27, unambiguously confirm the formation of a [2+2] cycloadduct in either straight or cross configuration.

[4] = Laser flash photolysis, triplet energy transfer from thioxanthone; settings: 355 nm pulsed laser, argon saturated acetonitrile, quencher 0 to 0.25 mM
pCa17 plasmid = assay: in vivo functional assay / restriction protection assay of M.SssI variants (HpaII digestion of isolated plasmid); settings: 200 ng plasmid, 1 U HpaII, 37° C., 1 hour, agarose gel

Q: Which “ddNTP incorporated in single base extension after photo-irradiation of template” value [1] does the source give for “5′-TACGACGAGTGCGGCA-3′: unmodified counterpart 16mer, control (DNA, backbone not given here)” here?
A: The value was “ddGTP”.

Q: Which results are given for `C=CCOCc1cn([C@H]2C[C@H](O)[C@@H](CO)O2)c(=O)nc1N` [5-All-OMC, 5-allyloxymethyl-dC]?
A: photochemical conversion to U analog on photo-irradiation [2]: high efficiency; HPLC profile during photo-irradiation ([2]; after 3 h of irradiation): the main peak is the starting material; HPLC profile during photo-irradiation, starting material ([2]; after 12 h photo-irradiation): mostly consumed

Q: For `Cc1c[nH]c(=O)nc1N` [5-methyl-C, 5-methylcytosine], which “photochemical conversion to U analog on photo-irradiation” value [2] is on record?
A: Its value is “remain intact”.

Q: Which results are given for `Nc1cc[nH]c(=O)n1` [C, Cytosine]?
A: photochemical conversion to U analog on photo-irradiation [2]: remain intact; ddNTP incorporated in single base extension after photo-irradiation of template [1]: ddATP

Q: For `O=c1c2ccccc2sc2ccccc12` [TX, thioxanthone], which “concentration of the sensitizer after photoirradiation” value [3] is on record?
A: The value was “remained unchanged”.

Q: For `OCC=Cc1ccccc1` [cinnamyl alcohol], which “rate constant of quenching of thioxanthone triplet (triplet energy transfer), kq” value [4] is on record?
A: Its value is 7.8e+09 M⁻¹ s⁻¹.

Q: For “wild-type: wild type CpG specific DNA methyltransferase M.SssI expressed from pCAL7”, which “resistance of isolated M.SssI expressing plasmid to HpaII digestion” value (pCa17 plasmid) is on record?
A: The value was “completely resistant”.
